Experimental data from patent US20230126447A1, “OCULAR DRUG DEPOT FOR COMPLEMENT-MEDIATED DISORDERS” (priority 2020, published 2023).
Values joined by “and” are separate entries in the source; they are usually repeats but may differ in a detail not shown here. Equal entries are not always repeated. Where two headings read alike, the source gives them in different places.

Assay: Ocular tissue and plasma pharmacokinetics, 50 mg/kg BID oral, Dutch Belted rabbits (Example 4/5)
Type: in vivo
Settings: for concentration at 96 h / concentration at 168 h / concentration at 0 h / concentration at 1 h / concentration at 6 h / concentration at 24 h / concentration at 240 h: 50 mg/kg
Procedure: Study design, including group designation and dose levels, are outlined in Table 15. […] Two Dutch Belted rabbits received vehicle only oral gavage doses for tolerability assessment. […] The dose volume was 5 mL/kg/dose for all groups. Safety was assessed with toxicological and ophthalmic examinations, including slit lamp biomicroscopy, indirect ophthalmoscopy, rebound tonometry, and ultrasonic corneal pachymetry.
For the pharmacokinetic determination, a single blood sample was taken from each rabbit from Groups 1 and 4 at one hour post-dose on Day 15, Group 2 at one hour post-dose on Day 8, and Group 3 at pre-dose, 1, 6, 24, 96, 168, and 240 hours post-dose on Day 15, with the eyes collected at the same time as blood sampling. Plasma, vitreous humor (VH), retina, choroid-retina pigmented epithelium (Choroid-RPE), optic nerve (ON), and iris-ciliary body (I-CB) were analyzed by LC-MS/MS to quantify test article concentrations. The lower limit of quantitation (LLOQ) in plasma and vitreous humor was 1.0 ng/mL. The LLOQ was 6.0 ng/g in retina, choroid-RPE, and I-CB and the optic nerve LLOQ was 15 ng/g, assuming tissue density of 1 g/mL where relevant. […]

[1] = male, Dutch Belted, po, Optic Nerve, DB rabbit, 50 mg/kg BID, Day 15
[2] = male, Dutch Belted, po, Plasma, DB rabbit, 50 mg/kg BID, Day 15
[3] = male, Dutch Belted, po, Retina, DB rabbit, 50 mg/kg BID, Day 15
[4] = male, Dutch Belted, po, Vitreous Humor, DB rabbit, 50 mg/kg BID, Day 15

CC(=O)c1nn(CC(=O)N2C[C@H](F)C[C@H]2C(=O)Nc2cccc(Br)n2)c2ccc(-c3cnc(C)nc3)cc12 [Compound 1, (2S,4R)-1-(2-(3-Acetyl-5-(2-methylpyrimidin-5-yl)-1H-indazol-1-yl)acetyl)-N-(6-bromopyridin-2-yl)-4-fluoropyrrolidine-2-carboxamide]
Cmax [1]: 1550 ng/g | MRT last [1]: 4.79 h | Tmax [1]: 1 h | half-life [1]: 7.82 h | AUC(0-inf) [2]: 10100 ng·h/mL | Cmax [2]: 2900 ng/mL | MRT last [2]: 4.73 h | Tmax [2]: 1 h | half-life [2]: 5.98 h | AUC(0-t) (male, Dutch Belted, po, Plasma, DB rabbit, 50 mg/kg BID, Day 15, read-out: AUC0-t): 9790 ng·h/mL | Cmax [3]: 2120 ng/g | MRT last [3]: 53.2 h | Tmax [3]: 1 h | half-life [3]: 96.1 h | Cmax [4]: 49.2 ng/g and 49.2 ng/mL | MRT last [4]: 7.27 h | Tmax [4]: 1 h | half-life [4]: 5.44 h | AUC(0-t) (male, Dutch Belted, po, Vitreous Humor, DB rabbit, 50 mg/kg BID, Day 15, read-out: AUClast): 419 ng·h/mL | concentration at 96 h (male, Dutch Belted, rabbit, choroid-RPE, oral, DB rabbits, Day 15, 50 mg/kg BID, 96 hr, read-out: Mean Choroid-RPE Concentration): 873 ng/g | concentration at 168 h (male, Dutch Belted, rabbit, choroid-RPE, oral, DB rabbits, Day 15, 50 mg/kg BID, 168 hr, read-out: Mean Choroid-RPE Concentration): 645 ng/g | concentration at 0 h (male, Dutch Belted, rabbit, choroid-RPE, po, DB rabbit, 50 mg/kg BID oral, Day 15, 0 h, read-out: Mean Choroid-RPE concentration): 3920 ng/g | concentration at 1 h (male, Dutch Belted, rabbit, choroid-RPE, po, DB rabbit, 50 mg/kg BID oral, Day 15, 1 h, read-out: Mean Choroid-RPE concentration): 8020 ng/g | concentration at 6 h (male, Dutch Belted, rabbit, choroid-RPE, po, DB rabbit, 50 mg/kg BID oral, Day 15, 6 h, read-out: Mean Choroid-RPE concentration): 4370 ng/g | concentration at 24 h (male, Dutch Belted, rabbit, choroid-RPE, po, DB rabbit, 50 mg/kg BID oral, Day 15, 24 h, read-out: Mean Choroid-RPE concentration): 2100 ng/g | concentration at 240 h (male, Dutch Belted, rabbit, choroid-RPE, po, DB rabbit, 50 mg/kg BID oral, Day 15, 240 h, read-out: Mean Choroid-RPE concentration): 194 ng/g | concentration at 0 h (male, Dutch Belted, rabbit, iris-ciliary body, po, DB rabbit, 50 mg/kg BID oral, Day 15, 0 h, read-out: Mean Iris-Ciliary Body concentration): 5080 ng/g | concentration at 1 h (male, Dutch Belted, rabbit, iris-ciliary body, po, DB rabbit, 50 mg/kg BID oral, Day 15, 1 h, read-out: Mean Iris-Ciliary Body concentration): 11500 ng/g | concentration at 6 h (male, Dutch Belted, rabbit, iris-ciliary body, po, DB rabbit, 50 mg/kg BID oral, Day 15, 6 h, read-out: Mean Iris-Ciliary Body concentration): 8820 ng/g | concentration at 24 h (male, Dutch Belted, rabbit, iris-ciliary body, po, DB rabbit, 50 mg/kg BID oral, Day 15, 24 h, read-out: Mean Iris-Ciliary Body concentration): 5560 ng/g | concentration at 96 h (male, Dutch Belted, rabbit, iris-ciliary body, po, DB rabbit, 50 mg/kg BID oral, Day 15, 96 h, read-out: Mean Iris-Ciliary Body concentration): 2840 ng/g | concentration at 168 h (male, Dutch Belted, rabbit, iris-ciliary body, po, DB rabbit, 50 mg/kg BID oral, Day 15, 168 h, read-out: Mean Iris-Ciliary Body concentration): 2290 ng/g | concentration at 240 h (male, Dutch Belted, rabbit, iris-ciliary body, po, DB rabbit, 50 mg/kg BID oral, Day 15, 240 h, read-out: Mean Iris-Ciliary Body concentration): 1620 ng/g | concentration at 0 h (male, Dutch Belted, rabbit, optic nerve, po, DB rabbit, 50 mg/kg BID oral, Day 15, 0 h, read-out: Optic Nerve concentration): 45.3 ng/g | concentration at 1 h (male, Dutch Belted, rabbit, optic nerve, po, DB rabbit, 50 mg/kg BID oral, Day 15, 1 h, read-out: Optic Nerve concentration): 1550 ng/g | concentration at 6 h (male, Dutch Belted, rabbit, optic nerve, po, DB rabbit, 50 mg/kg BID oral, Day 15, 6 h, read-out: Optic Nerve concentration): 133 ng/g | concentration at 24 h (male, Dutch Belted, rabbit, optic nerve, po, DB rabbit, 50 mg/kg BID oral, Day 15, 24 h, read-out: Optic Nerve concentration): 27 ng/g | concentration at 0 h (male, Dutch Belted, rabbit, plasma, po, DB rabbit, 50 mg/kg BID oral, Day 15, 0 h, read-out: Mean plasma concentration): 104 ng/mL | concentration at 1 h (male, Dutch Belted, rabbit, plasma, po, DB rabbit, 50 mg/kg BID oral, Day 15, 1 h, read-out: Mean plasma concentration): 2900 ng/mL | concentration at 6 h (male, Dutch Belted, rabbit, plasma, po, DB rabbit, 50 mg/kg BID oral, Day 15, 6 h, read-out: Mean plasma concentration): 320 ng/mL | concentration at 24 h (male, Dutch Belted, rabbit, plasma, po, DB rabbit, 50 mg/kg BID oral, Day 15, 24 h, read-out: Mean plasma concentration): 39.9 ng/mL | concentration at 0 h (male, Dutch Belted, rabbit, retina, oral, DB rabbits, Day 15, 50 mg/kg BID, 0 hr, read-out: Mean Retina Concentration): 159 ng/g | concentration at 1 h (male, Dutch Belted, rabbit, retina, oral, DB rabbits, Day 15, 50 mg/kg BID, 1 hr, read-out: Mean Retina Concentration): 2120 ng/g | concentration at 6 h (male, Dutch Belted, rabbit, retina, oral, DB rabbits, Day 15, 50 mg/kg BID, 6 hr, read-out: Mean Retina Concentration): 725 ng/g | concentration at 24 h (male, Dutch Belted, rabbit, retina, oral, DB rabbits, Day 15, 50 mg/kg BID, 24 hr, read-out: Mean Retina Concentration): 265 ng/g | concentration at 96 h (male, Dutch Belted, rabbit, retina, oral, DB rabbits, Day 15, 50 mg/kg BID, 96 hr, read-out: Mean Retina Concentration): 32.3 ng/g | concentration at 168 h (male, Dutch Belted, rabbit, retina, oral, DB rabbits, Day 15, 50 mg/kg BID, 168 hr, read-out: Mean Retina Concentration): 54.9 ng/g | concentration at 240 h (male, Dutch Belted, rabbit, retina, oral, DB rabbits, Day 15, 50 mg/kg BID, 240 hr, read-out: Mean Retina Concentration): 39.4 ng/g | concentration at 0 h (male, Dutch Belted, rabbit, retina, po, DB rabbit, 50 mg/kg BID oral, Day 15, 0 h, read-out: Mean retina concentration): 159 ng/g | concentration at 1 h (male, Dutch Belted, rabbit, retina, po, DB rabbit, 50 mg/kg BID oral, Day 15, 1 h, read-out: Mean retina concentration): 2120 ng/g | concentration at 6 h (male, Dutch Belted, rabbit, retina, po, DB rabbit, 50 mg/kg BID oral, Day 15, 6 h, read-out: Mean retina concentration): 725 ng/g | concentration at 24 h (male, Dutch Belted, rabbit, retina, po, DB rabbit, 50 mg/kg BID oral, Day 15, 24 h, read-out: Mean retina concentration): 265 ng/g | concentration at 96 h (male, Dutch Belted, rabbit, retina, po, DB rabbit, 50 mg/kg BID oral, Day 15, 96 h, read-out: Mean retina concentration): 32.3 ng/g | concentration at 168 h (male, Dutch Belted, rabbit, retina, po, DB rabbit, 50 mg/kg BID oral, Day 15, 168 h, read-out: Mean retina concentration): 54.9 ng/g | concentration at 240 h (male, Dutch Belted, rabbit, retina, po, DB rabbit, 50 mg/kg BID oral, Day 15, 240 h, read-out: Mean retina concentration): 39.3 ng/g | concentration at 0 h (male, Dutch Belted, rabbit, vitreous humor, po, DB rabbit, 50 mg/kg BID oral, Day 15, 0 h, read-out: Vitreous concentration): 2.91 ng/g | concentration at 1 h (male, Dutch Belted, rabbit, vitreous humor, po, DB rabbit, 50 mg/kg BID oral, Day 15, 1 h, read-out: Vitreous concentration): 49.2 ng/g | concentration at 6 h (male, Dutch Belted, rabbit, vitreous humor, po, DB rabbit, 50 mg/kg BID oral, Day 15, 6 h, read-out: Vitreous concentration): 28.7 ng/g | concentration at 24 h (male, Dutch Belted, rabbit, vitreous humor, po, DB rabbit, 50 mg/kg BID oral, Day 15, 24 h, read-out: Vitreous concentration): 2.9 ng/g | Tlast (plasma, DB rabbit, 50 mg/kg BID, Day 15): 24 h | C-RPE drug concentration at least 10 days following the last oral administration (rabbit, 50 mg/kg BID): 196 ng/mL
